Source: publication PMC3690538, “Structure of Rhomboid Protease in Complex with β-Lactam Inhibitors Defines the S2′ Cavity” (Structure(London, England:1993), 2013)

The molecules below were run against T1, GlpG (Escherichia coli, UniProt P09391) (assay: gel-based substrate cleavage, SDS-PAGE densitometry, four-parameter fit).
T1 construct: purified intramembrane serine protease in detergent
T1 sequence (P09391 1-276): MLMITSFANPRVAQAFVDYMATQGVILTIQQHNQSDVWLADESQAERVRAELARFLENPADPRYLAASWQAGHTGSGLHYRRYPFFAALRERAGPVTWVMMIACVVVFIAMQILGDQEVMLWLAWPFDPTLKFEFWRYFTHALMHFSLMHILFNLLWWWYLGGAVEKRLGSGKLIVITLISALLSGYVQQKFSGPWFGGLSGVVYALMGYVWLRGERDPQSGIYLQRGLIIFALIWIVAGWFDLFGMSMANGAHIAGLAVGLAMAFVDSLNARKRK
Format: biochemical
With `O=C1CC(c2ccccc2)N1C(=O)Oc1ccc(Cl)cc1` (centres unmarked) [L60] the IC50 was 1.09 ± 0.03 µM. Work on `O=C1CC(c2ccccc2)N1C(=O)OCc1ccccc1` (centres unmarked) [L59] yielded an IC50 of 0.728 ± 0.06 µM. For `O=C1CC(c2ccccc2)N1C(=O)OC1CCCC1` (racemic) [L62], the IC50 was 5.27 ± 0.08 µM. Work on `O=C1CC(c2ccccc2)N1C(=O)Oc1ccccc1` (racemic) [L29] yielded an IC50 of 1.12 ± 0.05 µM. `CC(C)COC(=O)N1C(=O)CC1c1ccccc1` (racemic) [L61] was tested, and the IC50 was 11.7 ± 0.75 µM.
